Columns and labels:
Conditions in all cases: 48 h
[1] = tested on: P12-Ichikawa; assay: AUC of viability dose-response curve (% viability x log10 dose units); higher = less sensitive
Method in brief: (§1)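 Over 48 h at 37°C, leukemia cells in 1536-well plates (500 or 1000 cells/well), adapted to each medium, received library compounds in DMSO at 11 threefold doses from 47 μM to 0.79 nM. CellTiter-Glo One luminescence, normalised per plate to DMSO and cell-free wells, was fitted by a four-parameter log-logistic function of log10 dose. The area under the curve was then integrated by trapezoidal rule, after scaling curves above full viability and removing those that failed quality control.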

[2] = tested on: NOMO1; assay: as above
Method in brief: as §1

[3] = tested on: P12-Ichikawa; assay: cell viability relative to DMSO control; higher = less cytotoxic
Method in brief: (§2)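 Three leukemia lines were tested: NOMO1 and SEM at 500 cells/well and P12-Ichikawa at 1000 cells/well. Each was adapted for at least four passages in each medium and seeded in 5 μl in 1536-well plates, and library compounds in DMSO were pin-dosed from 47 μM to 0.79 nM in 11 threefold steps. After 48 h at 37°C, CellTiter-Glo One luminescence was read. Viability is a percentage relative to DMSO wells on each plate, with cell-free wells as background.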

[4] = tested on: NOMO1; assay: as above
Method in brief: as §2

[5] = tested on: SEM cells; assay: as above
Method in brief: as §2

[6] = tested on: SEM cells; assay: AUC of viability dose-response curve (% viability x log10 dose units); higher = less sensitive
Method in brief: as §1

OC(=O)\C1=C\N(C2CC2)C3=CC(=C(F)C=C3C1=O)N4CCNCC4
AUC of viability dose-response curve
Conditions | HPLM + 10% dialyzed FBS | RPMI 5 mM glucose + 10% FBS | RPMI 5 mM glucose + 10% dialyzed FBS
[1] | 451 | 456 | 455
[2] | 404 | 428 | 422

cell viability [%]
Conditions | HPLM + 10% dialyzed FBS | RPMI 5 mM glucose + 10% FBS | RPMI 5 mM glucose + 10% dialyzed FBS
[3], 0.000781 µM | 110 | 102 | 99.4
[3], 0.00234 µM | 114 | 104 | 106
[3], 0.00702 µM | 114 | 115 | 113
[3], 0.0211 µM | 111 | 108 | 111
[3], 0.0632 µM | 112 | 112 | 112
[3], 0.19 µM | 112 | 113 | 108
[3], 0.569 µM | 115 | 115 | 113
[3], 1.71 µM | 113 | 100 | 114
[3], 5.12 µM | 96.6 | 104 | 99.4
[3], 15.4 µM | 91.9 | 92.3 | 90.5
[3], 46.1 µM | 68.7 | 63.9 | 64.7
[4], 0.000781 µM | 108 | 116 | 112
[4], 0.00234 µM | 117 | 126 | 132
[4], 0.00702 µM | 119 | 104 | 119
[4], 0.0211 µM | 129 | 118 | 116
[4], 0.0632 µM | 113 | 119 | 120
[4], 0.19 µM | 127 | 113 | 122
[4], 0.569 µM | 118 | 128 | 117
[4], 1.71 µM | 134 | 118 | 123
[4], 5.12 µM | 64.4 | 90 | 88.1
[4], 15.4 µM | 47.5 | 75.1 | 63.5
[4], 46.1 µM | 22.5 | 23.5 | 33.9

CCCCc1ccc2[nH]c(NC(=O)OC)nc2c1
AUC of viability dose-response curve
Conditions | HPLM + 10% dialyzed FBS | RPMI 5 mM glucose + 10% FBS | RPMI 5 mM glucose + 10% dialyzed FBS
[1] | 252 | 261 | 289
[2] | 304 | 273 | 293

cell viability [%]
Conditions | [3] | [4] | [5]
HPLM + 10% dialyzed FBS, 0.000781 µM | 104 | 108 | 75.4
HPLM + 10% dialyzed FBS, 0.00234 µM | 106 | 103 | 92.3
HPLM + 10% dialyzed FBS, 0.00702 µM | 105 | 106 | 98.4
HPLM + 10% dialyzed FBS, 0.0211 µM | 101 | 111 | 79.4
HPLM + 10% dialyzed FBS, 0.0632 µM | 85.9 | 95.3 | 72.3
HPLM + 10% dialyzed FBS, 0.19 µM | 22.9 | 37.6 | 26.6
HPLM + 10% dialyzed FBS, 0.569 µM | 18.4 | 31.9 | 25.9
HPLM + 10% dialyzed FBS, 1.71 µM | 27.1 | 33.3 | 23.8
HPLM + 10% dialyzed FBS, 5.12 µM | 13.8 | 42.8 | 26.2
HPLM + 10% dialyzed FBS, 15.4 µM | 16.2 | 37.3 | 23
HPLM + 10% dialyzed FBS, 46.1 µM | 11 | 47.7 | 16.1
RPMI 5 mM glucose + 10% FBS, 0.000781 µM | 99.7 | 102 | 80
RPMI 5 mM glucose + 10% FBS, 0.00234 µM | 112 | 109 | 81.5
RPMI 5 mM glucose + 10% FBS, 0.00702 µM | 101 | 120 | 87.2
RPMI 5 mM glucose + 10% FBS, 0.0211 µM | 106 | 110 | 75.5
RPMI 5 mM glucose + 10% FBS, 0.0632 µM | 92.6 | 99.8 | 52.4
RPMI 5 mM glucose + 10% FBS, 0.19 µM | 17.6 | 34.2 | 16.4
RPMI 5 mM glucose + 10% FBS, 0.569 µM | 16.8 | 26.1 | 15.6
RPMI 5 mM glucose + 10% FBS, 1.71 µM | 26.7 | 24.4 | 14.5
RPMI 5 mM glucose + 10% FBS, 5.12 µM | 24.1 | 25.8 | 18
RPMI 5 mM glucose + 10% FBS, 15.4 µM | 22.2 | 23.8 | 13.1
RPMI 5 mM glucose + 10% FBS, 46.1 µM | 16.5 | 24.2 | 10.8
RPMI 5 mM glucose + 10% dialyzed FBS, 0.000781 µM | 92.4 | 94.2 | 98.8
RPMI 5 mM glucose + 10% dialyzed FBS, 0.00234 µM | 98.4 | 96.6 | 95.8
RPMI 5 mM glucose + 10% dialyzed FBS, 0.00702 µM | 103 | 101 | 102
RPMI 5 mM glucose + 10% dialyzed FBS, 0.0211 µM | 102 | 95.3 | 77.2
RPMI 5 mM glucose + 10% dialyzed FBS, 0.0632 µM | 97.5 | 101 | 56.9
RPMI 5 mM glucose + 10% dialyzed FBS, 0.19 µM | 31 | 37.1 | 23.5
RPMI 5 mM glucose + 10% dialyzed FBS, 0.569 µM | 25.7 | 29.1 | 18.2
RPMI 5 mM glucose + 10% dialyzed FBS, 1.71 µM | 37.7 | 27.4 | 20.8
RPMI 5 mM glucose + 10% dialyzed FBS, 5.12 µM | 27.9 | 31.6 | 23.6
RPMI 5 mM glucose + 10% dialyzed FBS, 15.4 µM | 29.3 | 34.1 | 19.4
RPMI 5 mM glucose + 10% dialyzed FBS, 46.1 µM | 23.1 | 31.8 | 12.4

N#C/C(=C(/N)Sc1ccc(N)cc1)c1ccccc1C(F)(F)F
AUC of viability dose-response curve
Conditions | [1] | [2] | [6]
HPLM + 10% dialyzed FBS | 433 | 354 | 428
RPMI 5 mM glucose + 10% FBS | 417 | 386 | 424
RPMI 5 mM glucose + 10% dialyzed FBS | 436 | 366 | 404

cell viability [%], HPLM + 10% dialyzed FBS
Conditions | [3] | [5]
0.000781 µM | 123 | 91.1
0.00234 µM | 121 | 141
0.00702 µM | 125 | 124
0.0211 µM | 125 | 129
0.0632 µM | 133 | 129
0.19 µM | 118 | 124
0.569 µM | 120 | 126
1.71 µM | 103 | 110
5.12 µM | 94.4 | 85.4
15.4 µM | 94.1 | 82.3
46.1 µM | 83.9 | 64.6

CC1(COc2ccc3c(c2)ncn3-c2ccc3cccc(N4CCC(N)CC4)c3n2)COC1
AUC of viability dose-response curve
Conditions | HPLM + 10% dialyzed FBS | RPMI 5 mM glucose + 10% FBS | RPMI 5 mM glucose + 10% dialyzed FBS
[1] | 392 | 403 | 418
[6] | 254 | 216 | 240

cell viability [%], [5]
Conditions | HPLM + 10% dialyzed FBS | RPMI 5 mM glucose + 10% FBS | RPMI 5 mM glucose + 10% dialyzed FBS
0.000781 µM | 91.2 | 114 | 99.8
0.00234 µM | 96.7 | 101 | 99.7
0.00702 µM | 81.3 | 94 | 73.6
0.0211 µM | 62.7 | 64.9 | 59.6
0.0632 µM | 38.9 | 28.8 | 33.8
0.19 µM | 56.3 | 49.8 | 51.1
0.569 µM | 54.4 | 49.5 | 47.4
1.71 µM | 44.1 | 40.5 | 48.2
5.12 µM | 26.4 | 18.1 | 20
15.4 µM | 28.7 | 16.4 | 20.2
46.1 µM | 6.33 | 5.26 | 6.44

CC(=O)OCC(=O)[C@@]1(O)CC[C@H]2[C@@H]3CCC/4=C/C(=O)CC[C@]4(C)[C@H]3C(=O)C[C@]12C
AUC of viability dose-response curve
Conditions | [1] | [2] | [6]
HPLM + 10% dialyzed FBS | 460 | 464 | 466
RPMI 5 mM glucose + 10% FBS | 470 | 476 | 466
RPMI 5 mM glucose + 10% dialyzed FBS | 430 | 459 | 445

[5], HPLM + 10% dialyzed FBS
Conditions | cell viability [%]
0.000781 µM | 106
0.00234 µM | 109
0.00702 µM | 112
0.0211 µM | 101
0.0632 µM | 107
0.19 µM | 117
0.569 µM | 84.5
1.71 µM | 51.8
5.12 µM | 112
15.4 µM | 111
46.1 µM | 118
